In EP4745124A1, “NAPHTHALIMIDE-BASED CORONAVIRUS PAPAIN-LIKE PROTEASE INHIBITOR” (Guangzhou National Laboratory, priority 2023, dated 2025):

These compounds were tested against T1, SARS-CoV-2 PL^Pro (Severe acute respiratory syndrome coronavirus 2, UniProt P0DTD1) (assay: biochemical). Conditions: not given.
T1 construct: SARS-CoV-2 PL^Pro catalytic domain (746-1060); made in house
With `Cc1ccc(N2C3CCC2CNC3)cc1C(=O)NC1(c2ccc3c4c(cccc24)C(=O)N3C)CC1` [Compound P6, 5-(3,8-diazabicyclo[3.2.1]octan-8-yl)-2-methyl-N-(1-(1-methyl-2-oxo-1,2-dihydrobenzo[cd]indol-6-yl)cyclopropyl)ben zamide] the IC50 was < 40 nM. Compound `Cc1ccc(N2C3CCC2CN(C)C3)cc1C(=O)NC1(c2ccc3c4c(cccc24)C(=O)N3C)CC1` [Compound P8, 2-Methyl-N-(1-(1-methyl-2-oxo-1,2-dihydrobenzo[cd]indol-6-yl)cyclopropyl)-3-methyl-3,8-diazabicyclo[3.2.1]octan-8-yl benzamide] has an IC50 of 100 to 1000 nM. Work on `Cc1ccc(N2CCNC3(CC3)C2)cc1C(=O)NC1(c2ccc3c4c(cccc24)C(=O)N3C)CC1` [Compound P12, 2-Methyl-N-(1-(1-methyl-2-oxo-1,2-dihydrobenzo[cd]indol-6-yl)cyclopropyl)-5-(4,7-diazaspiro[2,5]octan-7-yl) benzamide] yielded an IC50 of 40 to 100 nM. With `Cc1ccc(N2CC3CC(C2)N3C)cc1C(=O)NC1(c2ccc3c4c(cccc24)C(=O)N3C(C)C)CC1` [Compound P21, N-(1-(1-isopropyl-2-oxo-1,2-dihydrobenzo[cd]indol-6-yl)cyclopropyl)-2-methyl-5-(6-methyl-3,6-diazabicyclo[3.1.1]heptan-3-yl)benzamide] the IC50 was < 40 nM.

Same assay, conditions: SARS-CoV-2 PLPro catalytic domain (746-1060), 10 minutes pre-incubation; read-out: PLpro IC50
Work on `Cc1ccc(N2CCN(C)CC2)cc1C(=O)NC1(c2ccc3c4c(cccc24)C(=O)N3)CC1` [Compound P2, 2-Methyl-5-(4-methylpiperazin-1-yl)-N-(1-(2-oxo-1,2-dihydrobenzo[cd]indol-6-yl)cyclopropyl)benzamide] yielded an IC50 of 40 to 100 nM. With `Cc1ccc(C2CCNCC2)cc1C(=O)NC1(c2ccc3c4c(cccc24)C(=O)N3C)CC1` [Compound P4, 2-Methyl-N-(1-(1-methyl-2-oxo-1,2-dihydrobenzo[cd]indol-6-yl)cyclopropyl)-5-(piperidin-4-yl)benzamide] the IC50 was 40 to 100 nM. With `Cc1ccc(N2CC3CNCC3C2)cc1C(=O)NC1(c2ccc3c4c(cccc24)C(=O)N3C)CC1` (centres unmarked) [Compound P9, 5-(hexahydropyrrolo[3,4-c]pyrrol-2(1H)-yl)-2-methyl-N-(1-(1-methyl-2-oxo-1,2-dihydrobenzo[cd]indol-6-yl)cyclopropyl)benzamide] the IC50 was < 40 nM. `Cc1ccc(N2CCNCC2C)cc1C(=O)NC1(c2ccc3c4c(cccc24)C(=O)N3C)CC1` (centres unmarked) [Compound P10, 2-Methyl-N-(1-(1-methyl-2-oxo-1,2-dihydrobenzo[cd]indol-6-yl)cyclopropyl)-5-(2-methylpiperazin-1-yl)benzamide] gave an IC50 of 100 to 1000 nM. Compound `Cc1ccc(N2CCC(N(C)C)CC2)cc1C(=O)NC1(c2ccc3c4c(cccc24)C(=O)N3C)CC1` [Compound P13, 5-(4-(Dimethylamino)piperidin-1-yl)-2-methyl-N-(1-(1-methyl-2-oxo-1,2-dihydrobenzo[cd]indol-6-yl)cyclopropyl)ben zamide] has an IC50 of 100 to 1000 nM. For `CCN1CCN(c2ccc(C)c(C(=O)NC3(c4ccc5c6c(cccc46)C(=O)N5C)CC3)c2)C[C@@H]1C` [Compound P14, (S)-5-(4-ethyl-3-methylpiperazin-1-yl)-2-methyl-N-(1-(1-methyl-2-oxo-1,2-dihydrobenzo[cd]indol-6-yl)cyclopropyl)be nzamide], the IC50 was < 40 nM. In the case of `Cc1ccc(-n2ccc(N(C)C)c2)cc1C(=O)NC1(c2ccc3c4c(cccc24)C(=O)N3C)CC1` [Compound P15, 5-(3-(dimethylamino)pyrrol-1-yl)-2-methyl-N-(1-(1-methyl-2-oxo-1,2-dihydrobenzo[cd]indol-6-yl)cyclopropyl)benzamide], the IC50 is reported as < 40 nM. For `Cc1ccc(N2CC(N3C=CC(F)(F)C3)C2)cc1C(=O)NC1(c2ccc3c4c(cccc24)C(=O)N3C)CC1` [Compound P18, 5-(3-(3,3-difluoropyrrol-1-yl)azetidin-1-yl)-2-methyl-N-(1-(1-methyl-2-oxo-1,2-dihydrobenzo[cd]indol-6-yl)cyclopropyl)benzamide], the IC50 was 100 to 1000 nM. `Cc1ccc(N2C[C@H]3CN(C)C[C@H]32)cc1C(=O)NC1(c2ccc3c4c(cccc24)C(=O)N3C)CC1` [Compound P20, 2-Methyl-N-(1-(1-methyl-2-oxo-1,2-dihydrobenzo[cd]indol-6-yl)cyclopropyl)-5-((1R,5S)-3-methyl-3,6-diazabicyclo[3. 2.0]heptan-6-yl)benzamide] showed an IC50 of 100 to 1000 nM. `Cc1ccc(C2CCN(C)CC2)cc1C(=O)NC1(c2ccc3c4c(cccc24)C(=O)N3C)CC1` [Compound P22, 2-methyl-N-(1-(1-methyl-2-oxo-1,2-dihydrobenzo[cd]indol-6-yl)cyclopropyl)-5-(1-methylpiperidin-4-yl)benzamide] gave an IC50 of 40 to 100 nM. In the case of `Cc1ccc(N2CC(N3CCN(C)CC3)C2)cc1C(=O)NC1(c2ccc3c4c(cccc24)C(=O)N3C)CC1` [Compound P23, 2-Methyl-N-(1-(1-methyl-2-oxo-1,2-dihydrobenzo[cd]indol-6-yl)cyclopropyl)-5-(3-(4-methylpiperazin-1-yl)azetidin-1-yl)benzamide], the IC50 is reported as 100 to 1000 nM. `Cc1ccc(N2CC(N3CCCCC3)C2)cc1C(=O)NC1(c2ccc3c4c(cccc24)C(=O)N3C)CC1` [Compound P24, 2-Methyl-N-(1-(1-methyl-2-oxo-1,2-dihydrobenzo[cd]indol-6-yl)cyclopropyl)-5-(3-(piperidin-1-yl)azetidin-1-yl)benzamide] was tested, and the IC50 was < 40 nM. In the case of `Cc1ccc(N2CCN3CCC[C@@H]3C2)cc1C(=O)NC1(c2ccc3c4c(cccc24)C(=O)N3C)CC1` [Compound P25, (R)-5-(hexahydropyrrolo[1,2-a]pyrazin-2(1H)-yl)-2-methyl-N-(1-(1-methyl-2-oxo-1,2-dihydrobenzo[cd]indol-6-yl)cyclopropyl)benzamide], the IC50 is reported as < 40 nM. For `Cc1ccc(N2CC(N3CCC(F)CC3)C2)cc1C(=O)NC1(c2ccc3c4c(cccc24)C(=O)N3C)CC1` [Compound P26, 5-(3-(4-fluoropiperidin-1-yl)azetidin-1-yl)-2-methyl-N-(1-(1-methyl-2-oxo-1,2-dihydrobenzo[cd]indol-6-yl)cyclopropyl)benzamide], the IC50 was < 40 nM. For `CCN1C(=O)c2cccc3c(C4(NC(=O)c5cc(N6CCN(C)CC6)ccc5C)CC4)ccc1c23` [Compound P27, N-(1-(1-ethyl-2-oxo-1,2-dihydrobenzo[cd]indol-6-yl)cyclopropyl)-2-methyl-5-(4-methylpiperazin-1-yl)benzamide], the IC50 was < 40 nM. In the case of `CCN1C(=O)c2cccc3c(C4(NC(=O)c5cc(N6CC(N7CCC(C)(O)CC7)C6)ccc5C)CC4)ccc1c23` [Compound P28, N-(1-(1-Ethyl-2-oxo-1,2-dihydrobenzo[cd]indol-6-yl)cyclopropyl)-5-(3-(4-hydroxy-4-methylpiperidin-1-yl)azetidin-1-yl)-2-methyl-benzamide], the IC50 is reported as < 40 nM. `Cc1ccc(N2CC(N3CCC(F)C3)C2)cc1C(=O)NC1(c2ccc3c4c(cccc24)C(=O)N3C)CC1` (centres unmarked) [Compound P30, 5-(3-(3-fluoropyrrolidin-1-yl)azetidin-1-yl)-2-methyl-N-(1-(1-methyl-2-oxo-1,2-dihydrobenzo[cd]indol-6-yl)cyclopropyl)benzamide] was tested, and the IC50 was < 40 nM. With `Cc1ccc(N2CC(N3CCC(F)(F)CC3)C2)cc1C(=O)NC1(c2ccc3c4c(cccc24)C(=O)N3C)CC1` [Compound P31, 5-(3-(4,4-difluoropiperidin-1-yl)azetidin-1-yl)-2-methyl-N-(1-(1-methyl-2-oxo-1,2-dihydrobenzo[cd]indol-6-yl)cyclopropyl)benzamide] the IC50 was 40 to 100 nM. With `Cc1ccc(N2CC(N3CCC(O)CC3)C2)cc1C(=O)NC1(c2ccc3c4c(cccc24)C(=O)N3C)CC1` [Compound P32, 5-(3-(4-hydroxypiperidin-1-yl)azetidin-1-yl)-2-methyl-N-(1-(1-methyl-2-oxo-1,2-dihydrobenzo[cd]indol-6-yl)cyclopropyl)benzamide] the IC50 was < 40 nM. `Cc1ccc(N2CC(N3CCCCC3C)C2)cc1C(=O)NC1(c2ccc3c4c(cccc24)C(=O)N3C)CC1` (centres unmarked) [Compound P34, 2-Methyl-N-(1-(1-methyl-2-oxo-1,2-dihydrobenzo[cd]indol-6-yl)cyclopropyl)-5-(3-(2-methylpiperidin-1-yl)azetidin-1-yl)benzamide] was tested, and the IC50 was < 40 nM. `Cc1ccc(N2CCC(CN3CCOCC3)CC2)cc1C(=O)NC1(c2ccc3c4c(cccc24)C(=O)N3C)CC1` [Compound P38, 2-Methyl-N-(1-(1-methyl-2-oxo-1,2-dihydrobenzo[cd]indol-6-yl)cyclopropyl)-5-(4-(morpholinomethyl)piperidin-1-yl)b enzamide] showed an IC50 of 100 to 1000 nM. With `Cc1ccc(N2CC3CCCN(C)C3C2)cc1C(=O)NC1(c2ccc3c4c(cccc24)C(=O)N3C)CC1` (centres unmarked) [Compound P39, 2-Methyl-N-(1-(1-methyl-2-oxo-1,2-dihydrobenzo[cd]indol-6-yl)cyclopropyl)-5-(1-methyloctahydro-6H-pyrrolo[3,4-b]pyridin-6-yl)benzamide] the IC50 was < 40 nM.

Same assay, conditions: read-out: PLpro IC50
`Cc1ccc(N2CC3(CCN(C)C3)C2)cc1C(=O)NC1(c2ccc3c4c(cccc24)C(=O)N3C)CC1` [Compound P19] gave an IC50 of 100 to 1000 nM. With `CCN1C(=O)c2cccc3c(C4(NC(=O)c5cc(N6CC7CC(C6)N7)ccc5C)CC4)ccc1c23` [Compound P29] the IC50 was < 40 nM. `Cc1ccc(N2CC(N3CCOC(C)(C)C3)C2)cc1C(=O)NC1(c2ccc3c4c(cccc24)C(=O)N3C)CC1` [Compound P33, 5-(3-(2,2-dimethylmorpholinyl)azetidin-1-yl)-2-methyl-N-(1-(1-methyl-2-oxo-1,2-dihydrobenzo[cd]indol-6-yl)cyclopropyl)benzamide] showed an IC50 of 100 to 1000 nM. Compound `Cc1ccc(N2CC(N3CCS(=O)(=O)CC3)C2)cc1C(=O)NC1(c2ccc3c4c(cccc24)C(=O)N3C)CC1` [Compound P35, 5-(3-(1,1-dioxothiomorpholin)azetidin-1-yl)-2-methyl-N-(1-(1-methyl-2-oxo-1,2-dihydrobenzo[cd]indol-6-yl)cyclopropyl)benzamide] has an IC50 of 100 to 1000 nM. For `Cc1ccc(N2CC[C@H](N(C)C(C)C)C2)cc1C(=O)NC1(c2ccc3c4c(cccc24)C(=O)N3C)CC1` [Compound P36], the IC50 was < 40 nM. `Cc1ccc(N2CCC(N3CCCC3)C2)cc1C(=O)NC1(c2ccc3c4c(cccc24)C(=O)N3C)CC1` (centres unmarked) [Compound P37, 5-([1,3'-dipyrrolidin]-1'-yl)-2-methyl-N-(1-(1-methyl-2-oxo-1,2-dihydrobenzo[cd]indol-6-yl)cyclopropyl)benzamide] gave an IC50 of 40 to 100 nM.
